From US20150132382A1, “COMPOSITIONS AND METHODS OF TREATMENT COMPRISING FOSFOMYCIN DISODIUM” (Forest Laboratories Holdings Ltd., priority 2013, published 2015)

Columns and labels:
[1] = Microenvironmental pH of fosfomycin sodium, with and without organic acid; assay type: physicochemical
Source text: Fosfomycin may be granulated by using methods such as slugging, low or high shear granulation or fluid bed granulation. For example, for high shear granulation (e.g., Diosna Mixer Granulator), fosfomycin can be blended with a water soluble filler (e.g., lactose, sucrose, mannitol and sorbitol) and granulated with binder (sugars like sucrose and liquid glucose; natural binders like starch and pre-gelatinized starch; synthetic/semisynthetic polymers like HPMC, povidone, PEG, polyvinyl alcohol) solution. The granules are dried, milled and blended with an organic acid (e.g., citric acid, tartaric acid, succinic acid, malic acid, fumaric acid), anti-adherent (e.g., talc, fumed silica) and lubricant (sodium stearyl fumarate). The organic acid serves as a neutralizer counteracting microenvironmental high alkalinity resulting from fosfomycin sodium. Fosfomycin sodium microenvironmental pH of about 9 would be reduced to pH 6-8 due to the presence of an organic acid. The final blend is compressed into tablets (1.4-1.7 g/tablet) followed by film coating (e.g., Opadry) in a conventional coating pan. These formulations can provide≧80% fosfomycin dissolution in less than 30 minutes at pH 1.2.

[2] = Borsa et al 1988; cited from earlier work
[3] = cited from earlier work
[4] = compared with the other fosfomycin salt (Bergan 1990); cited from earlier work

SMILES: C[C@@H]1O[C@@H]1P(=O)(O)O [Fosfomycin disodium, fosfomycin disodium]
- microenvironmental pH [1]: about 9
- gastric irritation [2]: known to cause gastric irritation

SMILES: C[C@@H]1O[C@@H]1P(=O)([O-])[O-].[Ca+2] [fosfomycin calcium]
- solubility in water [3]: slightly soluble in water
- bioavailability [4]: lower bioavailability
